In ChEMBL document CHEMBL1156893, “Structure-activity relationships amongst 4-position quinoline methanol antimalarials that inhibit the growth of drug sensitive and resistant strains of Plasmodium falciparum” (Bioorg Med Chem Lett, 2010):
In brackets after ≈: the same amount, converted by molar mass.

Experiments:
Plasmodium falciparum [1] = assay: Antimalarial activity against chloroquine and mefloquine-sensitive Plasmodium falciparum D6; type: functional
Plasmodium falciparum [2] = assay: Antimalarial activity against chloroquine-resistant and mefloquine-sensitive Plasmodium falciparum W2; type: functional, organism-based
Plasmodium falciparum [3] = assay: Antimalarial activity against chloroquine, pyrimethamine and mefloquine-resistant Plasmodium falciparum TM1C235; type: functional, organism-based
Plasmodium falciparum [4] = assay: Antimalarial activity against Plasmodium falciparum TM90C2A; type: functional, organism-based
[5] = Cytotoxicity against mouse RAW264.7 cells; type: cell-based; conditions: read-out: LC50 (the source's name)
[6] = Half life in mouse liver microsomes; type: ADME, Microsome
[7] = Apparent permeability from apical to basolateral side of MDCK cell monolayer expressing MDR1; type: ADME, cell-based, Canis lupus familiaris; conditions: dog
Plasmodium berghei = assay: Antimalarial activity against Plasmodium berghei infected in ICR mice (Mus musculus) assessed as delay in mortality at 160 mg/kg, perorally for 3 days; type: functional, organism-based; parameters: dose 160 mg/kg

| Structure (SMILES) | IC90 (Plasmodium falciparum [1]) [µg/mL] | IC50 (Plasmodium falciparum [2]) [µg/mL] | IC50 (Plasmodium falciparum [3]) [µg/mL] | IC50 (Plasmodium falciparum [4]) [µg/mL] | CC50 [5] [µg/mL] | IC90 (Plasmodium falciparum [2]) [µg/mL] | half-life [6] [min] | Papp A→B [7] [×10⁻⁶ cm/s] | IC90 (Plasmodium falciparum [3]) [µg/mL] | IC90 (Plasmodium falciparum [4]) [µg/mL] | survival time (Plasmodium berghei) [days] |
| --- | --- | --- | --- | --- | --- | --- | --- | --- | --- | --- | --- |
| CCCCOCC(O)c1cc(C(F)(F)F)nc2c(C(F)(F)F)cccc12 (stereo not given) | > 0.5 | > 0.5 | > 0.5 | > 0.5 |  |  |  |  |  |  |  |
| OC(CNCC(F)(F)F)c1cc(C(F)(F)F)nc2c(C(F)(F)F)cccc12 (stereo not given) | > 0.5 | > 0.5 | > 0.5 | > 0.5 | 32.1 (≈ 78.9 µM) |  |  |  |  |  |  |
| CNCC(O)c1cc(C(F)(F)F)nc2c(C(F)(F)F)cccc12 (stereo not given) | 0.017 (≈ 0.0503 µM) |  |  |  | 13.7 (≈ 40.4 µM) | 0.045 (≈ 0.133 µM) | 60 | 24 |  |  |  |
| CSCCCNCC(O)c1cc(C(F)(F)F)nc2c(C(F)(F)F)cccc12 (stereo not given) | 0.01 (≈ 0.0242 µM) |  |  |  | 8.62 (≈ 20.9 µM) | 0.036 (≈ 0.0873 µM) |  | 38 |  |  |  |
| OC(c1cc(C(F)(F)F)nc2c(C(F)(F)F)cccc12)C1CCCCN1 (racemic) [MEFLOQUINE] |  |  |  |  |  |  |  | 9.4 |  |  |  |
| OC(CNc1ccccc1)c1cc(C(F)(F)F)nc2c(C(F)(F)F)cccc12 (stereo not given) | 0.484 (≈ 1.21 µM) |  |  |  | 22.3 (≈ 55.7 µM) | 0.377 (≈ 0.942 µM) |  |  | 0.437 (≈ 1.09 µM) | 0.5 (≈ 1.25 µM) |  |
| CN(C)CC(O)c1cc(C(F)(F)F)nc2c(C(F)(F)F)cccc12 (stereo not given) | 0.02 (≈ 0.0568 µM) |  |  |  | 24.6 (≈ 69.9 µM) | 0.069 (≈ 0.196 µM) |  |  | 0.079 (≈ 0.224 µM) | 0.173 (≈ 0.491 µM) |  |
| CCCCN(CCCC)CC(O)c1cc(C(F)(F)F)nc2c(C(F)(F)F)cccc12 (stereo not given) | 0.002 (≈ 0.00458 µM) |  |  |  | 20.1 (≈ 46 µM) | 0.011 (≈ 0.0252 µM) |  |  | 0.027 (≈ 0.0619 µM) | 0.019 (≈ 0.0435 µM) |  |
| CC(C)CNCC(O)c1cc(C(F)(F)F)nc2c(C(F)(F)F)cccc12 (stereo not given) | 0.002 (≈ 0.00526 µM) |  |  |  | 27.1 (≈ 71.3 µM) | 0.013 (≈ 0.0342 µM) | 27 |  | 0.015 (≈ 0.0394 µM) | 0.021 (≈ 0.0552 µM) |  |
| OC(CNCc1ccccc1)c1cc(C(F)(F)F)nc2c(C(F)(F)F)cccc12 (stereo not given) | 0.019 (≈ 0.0459 µM) |  |  |  | 20.4 (≈ 49.3 µM) | 0.067 (≈ 0.162 µM) |  |  | 0.086 (≈ 0.208 µM) | 0.151 (≈ 0.364 µM) |  |
| NCC(O)c1cc(C(F)(F)F)nc2c(C(F)(F)F)cccc12 (stereo not given) | 0.47 (≈ 1.45 µM) |  |  |  | 8.07 (≈ 24.9 µM) | 0.4 (≈ 1.23 µM) |  |  | > 0.5 | > 0.5 |  |
| Cc1nc2ccccc2n1CC(O)c1cc(C(F)(F)F)nc2c(C(F)(F)F)cccc12 (stereo not given) | 0.11 (≈ 0.25 µM) |  |  |  |  | 0.22 (≈ 0.501 µM) | 9 |  | 0.31 (≈ 0.706 µM) | 0.32 (≈ 0.728 µM) |  |
| COCCNCC(O)c1cc(C(F)(F)F)nc2c(C(F)(F)F)cccc12 (stereo not given) | 0.015 (≈ 0.0392 µM) |  |  |  | 38.2 (≈ 100 µM) | 0.059 (≈ 0.154 µM) |  | 32 | 0.093 (≈ 0.243 µM) | 0.1 (≈ 0.262 µM) |  |
| OC(Cn1cnc2ccccc21)c1cc(C(F)(F)F)nc2c(C(F)(F)F)cccc12 (stereo not given) | 0.12 (≈ 0.282 µM) |  |  |  |  | 0.41 (≈ 0.964 µM) | 4 |  | 0.48 (≈ 1.13 µM) | 0.45 (≈ 1.06 µM) |  |
| OC(CNCCc1ccccc1)c1cc(C(F)(F)F)nc2c(C(F)(F)F)cccc12 (stereo not given) | 0.019 (≈ 0.0444 µM) |  |  |  | 9.64 (≈ 22.5 µM) | 0.023 (≈ 0.0537 µM) |  |  | 0.043 (≈ 0.1 µM) | 0.023 (≈ 0.0537 µM) |  |
| OC(CNCCF)c1cc(C(F)(F)F)nc2c(C(F)(F)F)cccc12 (stereo not given) | > 0.5 | > 0.5 | > 0.5 | > 0.5 |  |  |  |  |  |  |  |
| CCCCCCNCC(O)c1cc(C(F)(F)F)nc2c(C(F)(F)F)cccc12 (stereo not given) | 0.124 (≈ 0.304 µM) |  |  |  |  | 0.372 (≈ 0.911 µM) |  |  | 0.409 (≈ 1 µM) | 0.481 (≈ 1.18 µM) |  |
| CC(C)c1nccn1CC(O)c1cc(C(F)(F)F)nc2c(C(F)(F)F)cccc12 (stereo not given) | > 0.5 | > 0.5 | > 0.5 | > 0.5 | 50.1 (≈ 120 µM) |  | 10 |  |  |  |  |
| COCCCNCC(O)c1cc(C(F)(F)F)nc2c(C(F)(F)F)cccc12 (stereo not given) | 0.012 (≈ 0.0303 µM) |  |  |  | 25.2 (≈ 63.5 µM) | 0.051 (≈ 0.129 µM) |  |  | 0.084 (≈ 0.212 µM) | 0.086 (≈ 0.217 µM) |  |
| CCc1nc(C)cn1CC(O)c1cc(C(F)(F)F)nc2c(C(F)(F)F)cccc12 (stereo not given) | 0.069 (≈ 0.165 µM) |  |  |  | 25.7 (≈ 61.6 µM) | 0.043 (≈ 0.103 µM) | 22 |  | 0.056 (≈ 0.134 µM) | 0.057 (≈ 0.137 µM) |  |
| CCCCSCC(O)c1cc(C(F)(F)F)nc2c(C(F)(F)F)cccc12 (stereo not given) | > 0.5 | > 0.5 | > 0.5 | > 0.5 |  |  |  |  |  |  |  |
| CC(C)NCC(O)c1cc(C(F)(F)F)nc2c(C(F)(F)F)cccc12 (stereo not given) | 0.005 (≈ 0.0136 µM) |  |  |  | 5.2 (≈ 14.2 µM) |  | 60 |  | 0.023 (≈ 0.0628 µM) |  |  |
| CCCCNCC(O)c1cc(C(F)(F)F)nc2c(C(F)(F)F)cccc12 (stereo not given) | 0.002 (≈ 0.00526 µM) |  |  |  | 2.96 (≈ 7.8 µM) | 0.001 (≈ 0.00263 µM) |  | 25 | 0.009 (≈ 0.0237 µM) | 0.012 (≈ 0.0316 µM) |  |
| OCCNCC(O)c1cc(C(F)(F)F)nc2c(C(F)(F)F)cccc12 (stereo not given) | 0.26 (≈ 0.706 µM) |  |  |  |  | 0.49 (≈ 1.33 µM) |  |  | 0.485 (≈ 1.32 µM) | 0.388 (≈ 1.05 µM) |  |
| CCCN(CCC)CC(O)c1cc(C(F)(F)F)nc2c(C(F)(F)F)cccc12 (stereo not given) | 0.005 (≈ 0.0122 µM) |  |  |  | 33.2 (≈ 81.2 µM) | 0.02 (≈ 0.049 µM) |  |  | 0.02 (≈ 0.049 µM) | 0.03 (≈ 0.0735 µM) |  |
| CCN(CC)CC(O)c1cc(C(F)(F)F)nc2c(C(F)(F)F)cccc12 (stereo not given) | 0.009 (≈ 0.0237 µM) |  |  |  | 2.09 (≈ 5.5 µM) | 0.026 (≈ 0.0684 µM) |  |  | 0.037 (≈ 0.0973 µM) | 0.067 (≈ 0.176 µM) |  |
| CCCCCCC(O)c1cc(C(F)(F)F)nc2c(C(F)(F)F)cccc12 (stereo not given) | > 0.5 | > 0.5 | > 0.5 | > 0.5 |  |  |  |  |  |  |  |
| CCCc1nccn1CC(O)c1cc(C(F)(F)F)nc2c(C(F)(F)F)cccc12 (stereo not given) | 0.36 (≈ 0.863 µM) |  |  |  | 50.1 (≈ 120 µM) | 0.32 (≈ 0.767 µM) | 8 |  | 0.25 (≈ 0.599 µM) | 0.24 (≈ 0.575 µM) |  |
| OC(CNCCNCc1ccccc1)c1cc(C(F)(F)F)nc2c(C(F)(F)F)cccc12 (stereo not given) | 0.006 (≈ 0.0131 µM) |  |  |  | 8.28 (≈ 18.1 µM) | 0.029 (≈ 0.0634 µM) |  | 8.4 |  |  | 10 |
| OC(c1cc(C(F)(F)F)nc2c(C(F)(F)F)cccc12)C1CCCCN1 (stereo not given) [MEFLOQUINE] |  |  |  |  |  |  | > 60 |  |  |  |  |
